Results from patent US10538496B2, “Methods using HDAC11 inhibitors” (FORMA Therapeutics, Inc., priority 2016, dated 2020).

Key:
Type in all cases: cell-based
[1] = tested on: NCI-H1650 side population (SP) stem-like cells; test: Sphere formation assay with stem-like side population NSCLC cells; settings: H1650 (EGFR mutation), 0.5-5.0 μM, Day 10
Procedure: (§1) In order to investigate the role of HDAC11 in the self-renewal of stem-like cancer cells, sphere formation assays were conducted with NSCLC side population (SP) stem-like cells. A549 and NCI-H1650 cells were obtained from the ATCC. Asynchronously growing A549 or NCI-H1650 cells were washed once with phosphate buffered saline (PBS) and harvested using Accutase solution (Sigma Aldrich) and resuspended in DMEM-F12K medium (Gibo, Life Technologies) with 2% fetal bovine serum (FBS) at 1×10^6 cells/ml density. The cells were incubated with 4 μg/ml of Hoechst 33342 dye (Life Technologies) for 90 min at 37° C. in the presence or absence of 1 μM Fumitremorgin C (Sigma-Aldrich) which was used as a control sample to set the gate during sorting. The Hoechst stained cells were sorted using the BD FACSAria cell sorter. The sorted SP cells were plated in 96-well ultra-low adherent plate (Corning Inc) at the cell density of 1000 cells/100 μl/well in stem cell selective medium (DMEM:F12K supplemented with N2 supplement, 10 ng/mL epidermal growth factor (EGF) and 10 ng/ml basic fibroblast growth factor (bFGF) (Sigma-Aldrich) at 37° C. for 7-10 days. The spheres were observed and acquired using EVOS FL microscope system (Life Technologies Inc., USA). The numbers of spheres greater than or equal to 50 μm were counted. To study the effect of the HDAC11 inhibitors, the appropriate concentrations of the compounds were added to the wells on Day 0 and Day 5 and the image acquisition and analysis of the spheres were performed on Day 10. The sphere formation assays were performed twice with triplicates of each treatment in every assay.

[2] = tested on: A549 side population (SP) stem-like cells; test: as above; settings: A549 (KRAS mutation), 0.5-5.0 μM, Day 10
Procedure: as §1

H1650 cells = test: QRT-PCR assay for stem cell transcription factors; settings: 72 hours
Procedure: (§2) Given the effects of HDAC11 inhibition on stem-like side population cells, the effects on the expression of stem cell transcription factors was determined using QRT-PCR. A549 or H1650 cells were plated in 60 mm cell culture dishes (120,000 cells). The next day, HDAC11 inhibitors were added at various concentrations and incubated for 72 hours. For the siRNA experiments, A549 cells were plated in 60 mm cell culture dishes (120,000 cells per dish). The siRNAs (Santa Cruz Biotechnologies sc-106896 or ThermoFisher Scientific Cat#4392420) were transfected at a concentration of 100 and 150 pmoles into cells using Oligofectamine reagent (Invitrogen) as per manufacturer's protocol. A non-targeting siRNA (Ambion AM4635) was used as a control for all the transfection experiments. The cells were harvested after 72 hours post transfection. At the end of the treatments, cells were scraped, lysed and total RNA was isolated by RNeasy miniprep kit from Qiagen following the manufacturer's protocol (RNeasy mini kit Cat No. 74104). 1 μg of RNA was converted into cDNA using iScript cDNA synthesis kit (BioRad) in a 20 μl total reaction volume. Levels of mRNA were further analyzed using quantitative real time-PCR (qRT-PCR) that was performed in CFX96 Real time system using BioRad iQ SYBR Green supermix. The reaction was set with 5 μl of SYBR Green, 1 μl of 1 μM Forward primer, 1 μl of 1 μM Reverse primer, 0.5 μl of cDNA and 4.5 μl of water in a total 12 μl reaction. Data was normalized using GAPDH as an internal control and fold change was calculated by 2^−Delta-DeltaCt method. First the Delta-Ct was calculated (Delta-Ct=Ct Gene−Ct GAPDH). Next Delta-Delta-Ct was calculated (Delta-Delta-Ct=Delta-Ct treatment−Delta-Ct control). Finally fold change was calculated by 2^−Delta-DeltaCt.

A549 cells [3] = test: QRT-PCR assay for stem cell transcription factors; settings: 72 hours
Procedure: as §2

A549 cells [4] = test: Cell proliferation assay with combination treatment (MTT); settings: A549, combination with GDC-0449 (Vismodegib) or BMS-833923, 96 hours
Procedure: (§3) Selective HDAC11 inhibitors may be useful in combination with other targeted agents, including Jak2 inhibitors and Smoothened inhibitors. The effect of combination with the Smoothened inhibitors GDC-0449 (Vismodegib) and BMS-833923 was tested in lung cancer cell lines. A549 and NCI-H2170 cells were obtained from the ATCC. H2170 is a squamous carcinoma cell line. Cell viability was assessed using MTT reagent (Thiazolyl Blue Tetrazolium Bromide) (Sigma-Aldrich). The cells were grown in 96-well plates at a density of 3000-5000 cells/well in triplicates. The HDAC11 inhibitors were added to the adherent cells at different concentrations and treatment was carried out for 96 hours. After treatments, the cells were incubated with the 1 mg/mL MTT reagent at 37° C. for 1 hour. The reaction was terminated with DMSO that solubilizes the formazan product formed. Absorbance at 590 nm was recorded in a plate reader.

NCI-H2170 cells = test: as above; settings: H2170, combination with GDC-0449 (Vismodegib) or BMS-833923, 96 hours
Procedure: as §3

H1650 SP cells = test: Tube formation assay with stem-like side population NSCLC cells; settings: on Matrigel, overnight
Procedure: The angiogenic tubule assay was performed with the sorted side population cells to analyze vascular mimicry. The H1650 side population cells were sorted as mentioned above and they were further grown on Matrigel (BD Biosciences) to form angiogenic tubule-like structures. 100 μl of thawed Matrigel was layered on the wells of 96-well tissue culture plates and allowed to polymerize at 37° C. for 30 min. Sorted H1650 SP cells were layered (12000 cells/100 μl of Matrigel) on the polymerized matrigel and incubated overnight at 37° C. Tubule formation was assessed under bright field using EVOS FL microscope system and images were acquired with EVOS software (Life Technologies Inc., USA). For the treatment with HDAC11 inhibitors, appropriate concentrations of the compounds were added to the cells when they were seeded on Matrigel for the tubule formation assay.

| SMILES | growth of stem-like cancer cells (sphere formation) [1] | growth of stem-like cancer cells (sphere formation) [2] | expression of Gli1 (mRNA) (H1650 cells) | expression of Sox2 (mRNA) (H1650 cells) | expression of Yap1 (mRNA) (H1650 cells) | expression of Gli1 (mRNA) (A549 cells [3]) | expression of Sox2 (mRNA) (A549 cells [3]) | expression of Yap1 (mRNA) (A549 cells [3]) | cell viability, combination with Smoothened inhibitors (A549 cells [4]) | cell viability, combination with Smoothened inhibitors (NCI-H2170 cells) | tubule formation by H1650 SP cells (H1650 SP cells) |
| --- | --- | --- | --- | --- | --- | --- | --- | --- | --- | --- | --- |
| O=C(NO)c1cccc(Nc2nc3cc(Cl)c(Cl)cc3o2)c1 [HDTK010, 3-((5,6-dichlorobenzo[d]oxazol-2-yl)amino)-N-hydroxybenzamide] | prevented growth | prevented growth | decreased expression | decreased expression | decreased expression | decreased expression | decreased expression | decreased expression | decreased cell viability | decreased cell viability |  |
| O=C(NO)c1cccc2c1C[C@]1(CCN(Cc3ccc(Cl)c(C(F)(F)F)c3)C1=O)C2 [HDTK054, (S)-1′-(4-chloro-3-(trifluoromethyl)benzyl)-N-hydroxy-2′-oxo-1,3-dihydrospiro[indene-2,3′-pyrrolidine]-4-carboxamide] | prevented growth | prevented growth | decreased expression | decreased expression | decreased expression | decreased expression | decreased expression | decreased expression | decreased cell viability | decreased cell viability | inhibited tubule formation |
